± gives the standard deviation of the averaged measurements.
Tests used:
[1] = compound: C[C@H](CN(C)C)Oc1nc(Nc2cc3cccc(Cl)c3cn2)cnc1C#N; assay: surviving fraction relative to DMSO-only wells; higher = less growth inhibition; details: exposure time: 5 days
Procedure, shortened: (§1)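 Log-phase tumour cell lines, 250–500 cells per well in 384-well plates, received inhibitors at 0.5, 1, 5, 10, 50, 100, 500 and 1000 nM continuously for five days, starting 24 hours after seeding. Viability was quantified with CellTiter-Glo luminescence and normalised to the median of DMSO-only wells to give surviving fraction. Three screens were run per line, and a line stayed in only with replicate Pearson r >0.7 and median Z' >0.3.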

[2] = compound: COc1ccc(-c2cc3c(C)nc(N)nc3n([C@H]3CC[C@H](OCCO)CC3)c2=O)cn1; assay: as above; details: exposure time: 5 days
Procedure, shortened: as §1

Row | Test System | surviving fraction ([1]; 0.5 nM) | surviving fraction ([1]; 1 nM) | surviving fraction ([1]; 5 nM) | surviving fraction ([1]; 10 nM) | surviving fraction ([1]; 50 nM) | surviving fraction ([1]; 100 nM) | surviving fraction ([1]; 500 nM) | surviving fraction ([1]; 1000 nM) | surviving fraction ([2]; 0.5 nM) | surviving fraction ([2]; 1 nM) | surviving fraction ([2]; 5 nM) | surviving fraction ([2]; 10 nM) | surviving fraction ([2]; 50 nM) | surviving fraction ([2]; 100 nM) | surviving fraction ([2]; 500 nM) | surviving fraction ([2]; 1000 nM)
1 | HCC1395 BREAST | 0.957 ± 0.076 | 1.14 ± 0.13 | 1.161 ± 0.011 | 1.15 ± 0.14 | 1.27 ± 0.16 | 1.22 ± 0.029 | 0.729 ± 0.1 | 0.671 ± 0.15 | 0.864 ± 0.096 | 0.956 ± 0.025 | 0.998 ± 0.076 | 1.03 ± 0.029 | 0.883 ± 0.21 | 0.846 ± 0.13 | 0.766 ± 0.1 | 0.581 ± 0.15
2 | HCC1806 BREAST | 1.14 ± 0.095 | 1.09 ± 0.062 | 1.25 ± 0.2 | 1.13 ± 0.055 | 0.991 ± 0.068 | 0.633 ± 0.069 | 0.0587 ± 0.008 | 0.0547 ± 0.0029 | 1.08 ± 0.14 | 1.1 ± 0.042 | 1.12 ± 0.18 | 1.05 ± 0.094 | 0.993 ± 0.059 | 0.754 ± 0.1 | 0.366 ± 0.037 | 0.215 ± 0.0097
3 | HCC1954 BREAST | 1.14 ± 0.11 | 1.24 ± 0.018 | 1.32 ± 0.023 | 1.11 ± 0.15 | 1.35 ± 0.051 | 1.04 ± 0.024 | 0.48 ± 0.072 | 0.242 ± 0.02 | 0.993 ± 0.024 | 0.945 ± 0.056 | 1.153 ± 0.0064 | 1.03 ± 0.044 | 0.487 ± 0.08 | 0.322 ± 0.047 | 0.0592 ± 0.0095 | 0.0478 ± 0.0011
4 | HCT15 LARGE INTESTINE | 1.05 ± 0.022 | 1.04 ± 0.05 | 1.04 ± 0.022 | 1.05 ± 0.038 | 1.06 ± 0.051 | 1.06 ± 0.069 | 0.998 ± 0.057 | 0.799 ± 0.11 | 0.981 ± 0.029 | 1.04 ± 0.051 | 1.01 ± 0.016 | 0.975 ± 0.021 | 0.76 ± 0.016 | 0.543 ± 0.04 | 0.16 ± 0.013 | 0.091 ± 0.0046
5 | HELA CERVIX | 1.01 ± 0.019 | 1.03 ± 0.043 | 0.999 ± 0.058 | 0.988 ± 0.079 | 1.11 ± 0.037 | 1.07 ± 0.048 | 1.09 ± 0.085 | 0.831 ± 0.029 | 0.998 ± 0.04 | 0.989 ± 0.088 | 1.02 ± 0.042 | 1.02 ± 0.035 | 1.11 ± 0.039 | 1.06 ± 0.052 | 0.4 ± 0.019 | 0.318 ± 0.017
6 | HOS BONE | 1.01 ± 0.014 | 1.01 ± 0.024 | 0.996 ± 0.018 | 0.9907 ± 0.005 | 1.01 ± 0.035 | 1.002 ± 0.01 | 0.619 ± 0.023 | 0.16 ± 0.017 | 0.992 ± 0.0078 | 0.983 ± 0.019 | 0.986 ± 0.012 | 0.906 ± 0.014 | 0.781 ± 0.021 | 0.618 ± 0.016 | 0.231 ± 0.012 | 0.178 ± 0.0092
7 | HOSMNG BONE | 0.943 ± 0.14 | 0.937 ± 0.064 | 0.984 ± 0.072 | 0.964 ± 0.047 | 1.02 ± 0.072 | 1.05 ± 0.079 | 0.983 ± 0.096 | 0.0657 ± 0.0067 | 1.03 ± 0.058 | 1.01 ± 0.087 | 1.04 ± 0.037 | 0.947 ± 0.034 | 0.944 ± 0.082 | 0.81 ± 0.033 | 0.348 ± 0.0079 | 0.186 ± 0.0096
8 | HSSYII SYNOVIAL | 0.9423 ± 0.0023 | 0.918 ± 0.0061 | 0.956 ± 0.042 | 0.94 ± 0.066 | 0.884 ± 0.039 | 0.74 ± 0.015 | 0.139 ± 0.0076 | 0.077 ± 0.0027 | 0.926 ± 0.034 | 0.941 ± 0.07 | 0.821 ± 0.045 | 0.789 ± 0.036 | 0.502 ± 0.006 | 0.329 ± 0.014 | 0.12 ± 0.0097 | 0.093 ± 0.0052
9 | HT1080 SOFT TISSUE | 1.04 ± 0.044 | 1.03 ± 0.011 | 1.04 ± 0.017 | 1.04 ± 0.023 | 1 ± 0.028 | 0.972 ± 0.041 | 0.707 ± 0.018 | 0.398 ± 0.012 | 1.02 ± 0.038 | 0.974 ± 0.029 | 1.001 ± 0.0067 | 0.955 ± 0.1 | 0.829 ± 0.012 | 0.661 ± 0.031 | 0.255 ± 0.015 | 0.161 ± 0.0072
10 | HU09 BONE | 1.05 ± 0.11 | 0.964 ± 0.017 | 1.02 ± 0.086 | 1.02 ± 0.092 | 1.07 ± 0.13 | 0.903 ± 0.12 | 0.437 ± 0.063 | 0.261 ± 0.054 | 0.936 ± 0.058 | 0.941 ± 0.057 | 0.779 ± 0.044 | 0.793 ± 0.078 | 0.346 ± 0.042 | 0.168 ± 0.015 | 0.0383 ± 0.0015 | 0.0237 ± 0.0015
11 | HUO3N1 BONE | 1.11 ± 0.059 | 1.05 ± 0.032 | 1.07 ± 0.023 | 1.07 ± 0.072 | 1.13 ± 0.071 | 0.982 ± 0.031 | 0.7257 ± 0.0065 | 0.486 ± 0.025 | 0.986 ± 0.036 | 0.981 ± 0.039 | 0.924 ± 0.061 | 0.855 ± 0.028 | 0.614 ± 0.013 | 0.494 ± 0.026 | 0.242 ± 0.012 | 0.188 ± 0.003
12 | JIMT1 BREAST | 0.979 ± 0.019 | 0.966 ± 0.042 | 1.03 ± 0.01 | 0.988 ± 0.043 | 0.916 ± 0.053 | 0.467 ± 0.025 | 0.0688 ± 0.0064 | 0.0615 ± 0.0039 | 0.983 ± 0.03 | 0.961 ± 0.023 | 0.968 ± 0.011 | 0.937 ± 0.024 | 0.857 ± 0.021 | 0.606 ± 0.022 | 0.19 ± 0.0061 | 0.114 ± 0.013
13 | JURKAT HAEMATOPOIETIC AND LYMPHOID TISSUE | 1.08 ± 0.028 | 1.07 ± 0.013 | 1.05 ± 0.015 | 1.01 ± 0.021 | 0.927 ± 0.038 | 0.948 ± 0.02 | 0.619 ± 0.029 | 0.103 ± 0.014 | 1.07 ± 0.026 | 1.09 ± 0.024 | 1.04 ± 0.021 | 1 ± 0.022 | 0.741 ± 0.017 | 0.57 ± 0.013 | 0.213 ± 0.011 | 0.135 ± 0.0042
14 | KPD BONE | 1.04 ± 0.068 | 0.982 ± 0.083 | 1.03 ± 0.1 | 1.05 ± 0.11 | 1.06 ± 0.054 | 0.979 ± 0.025 | 0.4 ± 0.025 | 0.224 ± 0.028 | 0.973 ± 0.033 | 0.95 ± 0.056 | 0.908 ± 0.032 | 0.852 ± 0.032 | 0.486 ± 0.028 | 0.313 ± 0.019 | 0.0613 ± 0.0067 | 0.038 ± 0.0046
15 | LM7 BONE | 0.96 ± 0.013 | 0.916 ± 0.015 | 0.945 ± 0.068 | 1.02 ± 0.054 | 1.06 ± 0.086 | 0.99 ± 0.099 | 0.835 ± 0.11 | 0.528 ± 0.077 | 0.996 ± 0.022 | 0.896 ± 0.031 | 0.947 ± 0.019 | 0.906 ± 0.057 | 0.691 ± 0.023 | 0.578 ± 0.022 | 0.205 ± 0.012 | 0.0677 ± 0.005
16 | LNCAP PROSTATE | 0.913 ± 0.085 | 0.863 ± 0.11 | 0.863 ± 0.015 | 0.92 ± 0.05 | 0.85 ± 0.064 | 0.855 ± 0.041 | 0.549 ± 0.047 | 0.464 ± 0.036 | 0.877 ± 0.095 | 0.872 ± 0.045 | 0.759 ± 0.026 | 0.622 ± 0.041 | 0.226 ± 0.024 | 0.099 ± 0.012 | 0.0437 ± 0.0051 | 0.035 ± 0.0044
17 | MCF7 BREAST | 0.896 ± 0.012 | 0.87 ± 0.042 | 0.873 ± 0.069 | 0.881 ± 0.063 | 0.904 ± 0.026 | 0.813 ± 0.046 | 0.751 ± 0.016 | 0.697 ± 0.023 | 0.875 ± 0.029 | 0.851 ± 0.016 | 0.807 ± 0.027 | 0.764 ± 0.058 | 0.527 ± 0.0077 | 0.358 ± 0.0078 | 0.185 ± 0.0036 | 0.181 ± 0.0076
18 | MDAMB134 BREAST | 0.726 ± 0.035 | 0.791 ± 0.072 | 0.766 ± 0.071 | 0.663 ± 0.12 | 0.66 ± 0.073 | 0.6525 ± 0.005 | 0.497 ± 0.054 | 0.488 ± 0.02 | 0.973 ± 0.12 | 0.869 ± 0.11 | 0.864 ± 0.061 | 0.839 ± 0.19 | 0.639 ± 0.11 | 0.682 ± 0.064 | 0.361 ± 0.0042 | 0.293 ± 0.05
19 | MDAMB157 BREAST | 0.946 ± 0.057 | 0.982 ± 0.033 | 1.01 ± 0.021 | 0.947 ± 0.048 | 1.03 ± 0.051 | 0.902 ± 0.11 | 0.239 ± 0.015 | 0.136 ± 0.029 | 0.899 ± 0.061 | 0.963 ± 0.12 | 0.802 ± 0.051 | 0.812 ± 0.042 | 0.705 ± 0.079 | 0.618 ± 0.088 | 0.432 ± 0.042 | 0.332 ± 0.02
20 | MDAMB231 BREAST | 0.9579 ± 0.0095 | 0.9571 ± 0.0043 | 0.93 ± 0.076 | 0.959 ± 0.024 | 0.9788 ± 0.0062 | 0.961 ± 0.02 | 0.743 ± 0.029 | 0.492 ± 0.0092 | 0.98 ± 0.011 | 0.985 ± 0.021 | 0.949 ± 0.016 | 0.902 ± 0.018 | 0.645 ± 0.0077 | 0.495 ± 0.013 | 0.182 ± 0.0094 | 0.145 ± 0.0081
21 | MDAMB361 BREAST | 0.818 ± 0.021 | 0.744 ± 0.048 | 0.752 ± 0.058 | 0.775 ± 0.053 | 0.724 ± 0.03 | 0.547 ± 0.056 | 0.481 ± 0.02 | 0.488 ± 0.04 | 0.905 ± 0.065 | 0.953 ± 0.1 | 0.852 ± 0.056 | 0.775 ± 0.096 | 0.78 ± 0.082 | 0.604 ± 0.026 | 0.248 ± 0.02 | 0.205 ± 0.028

Source: the supplement of paper PMC6045584
